# In ChEMBL document CHEMBL1123613, “2,4-Diamino-6,7-dimethoxyquinazolines. 3. 2-(4-Heterocyclylpiperazin-1-yl) derivatives as alpha 1-adrenoceptor antagonists and antihypertensive agents” (J Med Chem, 1987):
# Calls of active or inactive are those of the source. The rule behind the calls is not given here.
# Key:
# [1] = biological target: T1, Adrenergic receptor alpha-2 (Rattus norvegicus) (UniProt P22086+P19328+P22909); assay: Percent displacement of [3H]clonidine from alpha-2-adrenoceptor in rat brain homogenates at 10E-6 M; Activity of less than 50%.; format: tissue-based
# [2] = biological target: T2, Adrenergic receptor alpha-1 (Rattus norvegicus, UniProt P15823+P23944+P43140); assay: Binding affinity against alpha-1-adrenoceptor in rat brain homogenates [3H]-prazosin displacement.; format: tissue-based
# T2 sequence (P15823 whole entry): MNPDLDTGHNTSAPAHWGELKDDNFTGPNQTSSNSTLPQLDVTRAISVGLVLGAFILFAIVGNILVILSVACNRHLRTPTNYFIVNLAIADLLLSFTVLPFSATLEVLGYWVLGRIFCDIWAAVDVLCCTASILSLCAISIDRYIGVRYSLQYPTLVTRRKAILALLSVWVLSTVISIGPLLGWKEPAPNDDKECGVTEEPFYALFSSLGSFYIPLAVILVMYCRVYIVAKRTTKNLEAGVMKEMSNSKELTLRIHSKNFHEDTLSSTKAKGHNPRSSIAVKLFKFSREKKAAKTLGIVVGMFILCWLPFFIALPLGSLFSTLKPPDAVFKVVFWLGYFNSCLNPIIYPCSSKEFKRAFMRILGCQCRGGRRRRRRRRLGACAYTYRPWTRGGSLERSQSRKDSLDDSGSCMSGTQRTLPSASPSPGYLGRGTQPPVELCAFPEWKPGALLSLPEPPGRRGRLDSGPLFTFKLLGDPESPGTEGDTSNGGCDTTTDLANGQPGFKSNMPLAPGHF
# T2 sequence (P23944 whole entry): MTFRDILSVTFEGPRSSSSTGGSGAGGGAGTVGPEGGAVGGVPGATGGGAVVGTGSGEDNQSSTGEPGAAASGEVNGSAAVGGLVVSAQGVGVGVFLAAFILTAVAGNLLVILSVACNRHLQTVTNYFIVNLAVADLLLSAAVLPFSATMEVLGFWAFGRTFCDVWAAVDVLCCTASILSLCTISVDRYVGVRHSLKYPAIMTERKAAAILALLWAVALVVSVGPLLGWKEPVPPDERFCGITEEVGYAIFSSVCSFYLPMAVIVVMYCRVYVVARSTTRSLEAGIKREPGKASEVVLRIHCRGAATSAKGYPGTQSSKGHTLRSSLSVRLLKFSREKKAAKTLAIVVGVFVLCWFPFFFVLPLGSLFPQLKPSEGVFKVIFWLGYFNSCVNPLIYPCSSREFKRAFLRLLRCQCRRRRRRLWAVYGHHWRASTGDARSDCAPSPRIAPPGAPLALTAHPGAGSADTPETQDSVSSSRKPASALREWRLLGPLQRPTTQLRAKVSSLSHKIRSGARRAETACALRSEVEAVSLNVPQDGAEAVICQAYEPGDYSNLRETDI
# T2 sequence (P43140 whole entry): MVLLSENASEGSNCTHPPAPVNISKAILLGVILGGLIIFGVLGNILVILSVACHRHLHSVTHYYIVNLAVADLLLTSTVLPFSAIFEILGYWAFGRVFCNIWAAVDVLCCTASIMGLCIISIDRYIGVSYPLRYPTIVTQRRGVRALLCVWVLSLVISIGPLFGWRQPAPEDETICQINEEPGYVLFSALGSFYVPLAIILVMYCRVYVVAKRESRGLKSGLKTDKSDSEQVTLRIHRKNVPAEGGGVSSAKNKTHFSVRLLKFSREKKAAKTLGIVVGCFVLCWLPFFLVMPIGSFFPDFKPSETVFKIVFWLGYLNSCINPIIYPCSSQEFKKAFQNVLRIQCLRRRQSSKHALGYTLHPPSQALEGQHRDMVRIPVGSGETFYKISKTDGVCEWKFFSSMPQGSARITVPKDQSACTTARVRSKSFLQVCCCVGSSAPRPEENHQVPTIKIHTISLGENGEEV
# Rattus norvegicus [3] = assay: Antihypertensive activity was determined by percent reduction in blood pressure after 1 hr upon peroral administration of 5 mg/kg dose in spontaneously hypertensive rats(SHR).; format: functional; conditions: route oral
# Rattus norvegicus [4] = assay: Antihypertensive activity was determined by percent reduction in blood pressure after 6 hr upon peroral administration of 5 mg/kg dose in spontaneously hypertensive rats(SHR).; format: functional; conditions: route oral
# [5] = biological target: T1, Adrenergic receptor alpha-2 (Rattus norvegicus); assay: Percent displacement of [3H]clonidine to alpha-2-adrenoceptor was determined in rat brain homogenates at 10E-6 M; format: tissue-based
# Rattus norvegicus [6] = assay: Antihypertensive activity was determined by percent reduction in blood pressure after 1 hr upon peroral administration of 5 mg/kg dose in spontaneously hypertensive rats(SHR); not significant because of blood pressure falls below 10%; format: functional; conditions: route oral
# Rattus norvegicus [7] = assay: Antihypertensive activity was determined by percent reduction in blood pressure after 4 hr upon peroral administration of 3 mg/kg dose in spontaneously hypertensive rats(SHR).; format: functional; conditions: route oral
# Rattus norvegicus [8] = assay: Antihypertensive activity was determined by percent reduction in blood pressure after 6 hr upon peroral administration of 5 mg/kg dose in spontaneously hypertensive rats(SHR); not significant because of blood pressure falls below 10%; format: functional; conditions: route oral
Compound,Displacement [1],Ki [2],Reduction (Rattus norvegicus [3]),Reduction (Rattus norvegicus [4]),Displacement [5],Reduction (Rattus norvegicus [6]),Reduction (Rattus norvegicus [7]),Reduction (Rattus norvegicus [8])
COc1cc2nc(N3CCN(c4nccc(-c5ccccc5)n4)CC3)nc(N)c2cc1OC,inactive,1.66 nM,17%,17%,–,–,–,–
COc1cc2nc(N3CCN(c4ccnc(Oc5ccccc5)n4)CC3)nc(N)c2cc1OC,inactive,0.24 nM,19%,24%,–,–,–,–
COc1cc(N2CCN(c3nc(N)c4cc(OC)c(OC)cc4n3)CC2)nc(OC)n1,–,0.16 nM,22%,20%,54.2%,–,–,–
COc1cc2nc(N3CCN(c4nccc(N(C)C)n4)CC3)nc(N)c2cc1OC,inactive,0.27 nM,–,13%,–,7%,–,–
COc1cc2nc(N3CCN(C(=O)c4ccco4)CC3)nc(N)c2cc1OC [PRAZOSIN],–,–,33%,29%,–,–,–,–
CCCOc1ccnc(N2CCN(c3nc(N)c4cc(OC)c(OC)cc4n3)CC2)n1,inactive,0.32 nM,34%,22%,–,–,–,–
COc1cc2nc(N3CCN(c4ccncn4)CC3)nc(N)c2cc1OC,inactive,0.27 nM,21%,–,–,–,12%,–
COc1ccnc(N2CCN(c3nc(N)c4cc(OC)c(OC)cc4n3)CC2)n1,inactive,0.19 nM,15%,14%,–,–,–,–
COc1nc(OC)nc(N2CCN(c3nc(N)c4cc(OC)c(OC)cc4n3)CC2)n1,inactive,0.08 nM,15%,22%,–,–,–,–
COc1cc2nc(N3CCN(c4ncccn4)CC3)nc(N)c2cc1OC,inactive,0.26 nM,40%,28%,–,–,–,–
COc1cc2nc(N3CCN(c4nc(Oc5ccccc5)nc(Oc5ccccc5)n4)CC3)nc(N)c2cc1OC,inactive,0.87 nM,–,–,–,9%,–,8%
COc1cc2nc(N3CCN(c4cc(OC(C)C)ncn4)CC3)nc(N)c2cc1OC,inactive,0.18 nM,55%,49%,–,–,–,–
CCCOc1cc(N2CCN(c3nc(N)c4cc(OC)c(OC)cc4n3)CC2)ncn1,inactive,0.36 nM,39%,22%,–,–,–,–
COc1cc2nc(N3CCN(c4nc(N)nc(N)n4)CC3)nc(N)c2cc1OC,inactive,0.47 nM,–,12%,–,2%,–,–
COc1cc2nc(N3CCN(c4cccnn4)CC3)nc(N)c2cc1OC,inactive,0.4 nM,22%,–,–,–,20%,–
COc1cc2nc(N3CCN(c4ccnc(N5CCOCC5)n4)CC3)nc(N)c2cc1OC,inactive,0.31 nM,16%,–,–,–,43%,–
COc1cc2nc(N3CCN(c4cc(N(C)C)ncn4)CC3)nc(N)c2cc1OC,–,–,–,18%,–,8%,–,–
COc1cc2nc(N3CCN(c4nccc(C)n4)CC3)nc(N)c2cc1OC,inactive,0.92 nM,28%,15%,–,–,–,–
COc1cc2nc(N3CCN(c4cnccn4)CC3)nc(N)c2cc1OC,inactive,0.18 nM,–,–,–,7%,–,8%
COc1cc2nc(N3CCN(c4ccc(OC(C)C)nn4)CC3)nc(N)c2cc1OC,inactive,0.29 nM,39%,–,–,–,33%,–
